# Test results published in US10918891B2, “Cosmetic treatment method for the skin” (SYNTIVIA, priority 2016, dated 2021).
# Experiments:
# [1] = test system: normal human Keratinocytes (NHEK); assay: Reactive oxygen species (H2DCFDA probe) in NHEK after single UVA stress; assay type: cell-based; settings: 24 h incubation; (Ia) 3 ppm, Trolox 20 ppm, Quercetin 18 ppm; UVA 10 J/cm2; normalised to viability (MTS); CTL UVA 289687.6, CTL without stress 16441.9
# Description: The cells used for this example are normal human Keratinocytes (NHEK).
# The antioxidant properties (neutralising the production of reactive oxygen species) of the compound (Ia) are evaluated after a single stress with UVAs on NHEKs, by a test based on the use of the fluorescent probe H2DCFDA on a triple culture.
# H2DCFDA (2′-7′dichlorodihydrofluorescein diacetate, Fischer Scientific) is a probe that, after having diffused into the cell and after its acetate group has been split by intracellular esterases, can be oxidised by free radicals (H2O2) into DCF (2′-7′ dichlorofluorescein), a fluorescent compound. The production of the free radicals can thus be quantified by the level of fluorescence emitted by the oxidised probe. The more the cell produces free radicals, the higher the level of fluorescence detected.
# After 24 hours of incubation with the compound (Ia) (3 ppm in an aqueous solution with 0.1% dimethylsulfoxide) or the reference elements, the cells are placed in the presence of the H2DCFDA probe at 3 ppm for 1 hour at 37° C., 5% CO2 in order to allow its intracellular diffusion.
# The reference antioxidant elements are: Trolox ([…], Sigma), at 20 ppm and Quercetin (quercetin dihydrate, Sigma), at 18 ppm.
# After one rinsing, the cells are subjected to a single stress with UVAs (in the absence of compound (Ia)) at a rate of 10 joules per square centimetre. The quantification of the fluorescence emitted (excitation: 485 nm; emission: 520 nm) is carried out immediately after the end of the UVA stress. […]
# In order to provide a result representative of the cellular population of each condition after a single stress with UVAs, a cellular viability test (MTS) is carried out immediately after the quantification of the fluorescence emitted. The fluorescence values are thus normalised with respect to the cellular viabilities in order for it to be possible to compare the levels of fluorescence of the various conditions to each other.
# [2] = test system: NativeSkin® skin explants (Genoskin); assay: Breaks in the DNA (γ-H2AX marking) of NativeSkin skin explant ex vivo after UVA irradiation; assay type: cell-based, human; settings: composition 0.9 mmol/L topical, 60 J/cm^2 UVA every day for 3 days, n=10 images, FIG. 7
# Description: (§1) The test was carried out on NativeSkin® skin explants (Genoskin), a biopsy of skin bathed in a solid, nourishing matrix while its epidermal surface is preserved in contact with the air. The biopsy is firmly anchored in the matrix and sealed in order to prevent any lateral diffusion of formulation intended for topical application.
# (§2) The study was carried out on a donor (phototype 2) under the following conditions.
# (§3) The compounds tested are implemented in a composition containing them at 0.9 mmol/L in a mixture of Carbopol® (0.5% p/p), DMSO (0.1% p/p) and H2O (qsp 100%).
# (§4) The samples are irradiated at 60 J/cm^2 UVA every day for 3 days. A treatment is carried out for 24 h before the irradiation, by application of the composition tested onto the sample (deposition of 40 μl of composition onto the stratum corneum), then a post-treatment of 24 h after the irradiation, in the same manner.
# (§5) A Control of the sample of skin non-irradiated and a Control of the sample of skin irradiated are also carried out, both with application of the vehicle alone (0.5% Carbopol®, 0.1% DMSO, H2O). The Control of the non-irradiated sample of skin is introduced into the irradiator in a sheet of aluminium, in such a way as to protect it against UVs.
# (§6) The samples are sampled, cut (according to the conventional method of cryo-sectioning implementing paraffin and freezing) and fixed in 1 ml of formalin for 24 h.
# (§7) The explants are then included in paraffin and sections of 5 μm are made.
# The slides obtained are also marked by immunohistochemistry with the biomarker γ-H2Ax.
# (§8) The analysis of the marking is carried out with a DM5000B fluorescence microscope (Leica Microsystems) and 10 images are acquired for each sample.
# For the marking with γ-H2Ax, for each image, the total number of nuclei is detected with 4′,6-diamidino-2-phenylindole (dapi). In the same image, the number of nuclei having the marking is quantified. The ratio of the number of positive nuclei, multiplied by 100, to the number of total nuclei, is calculated, in order to obtain a percentage (=(positive nuclei*100)/total nuclei), n=10 per sample.
# A statistical analysis is carried out with a student's test by comparing the samples to the control (p value[…], p value<0.05**, p value<0.005***, ns not significant).
# [3] = test system: NativeSkin® skin explants (Genoskin); assay: Histological analysis (haematoxylin/eosin) of NativeSkin skin explant ex vivo after UVA irradiation; assay type: cell-based, human; settings: composition 0.9 mmol/L topical, 60 J/cm^2 UVA every day for 3 days, FIG. 5
# Description: as §1, §2, §3, §4, §5, §6, §7
# The slides are then coloured with haematoxylin (basic compound marking the nuclei) and eosin (acidic compound marking the conjunctive tissue).
# as §8
# NHEK cells = assay: Survival (WST1) of NHEK keratinocytes exposed to cigarette extract, comparison with caffeic acid; assay type: cell-based, human; settings: compound 10 ppm pretreatment 24 h and treatment 24 h, cigarette extract 1/50, cigarette extract alone 55% survival, FIG. 4
# Description: This study aims to compare the protective or repairing effect of the compounds according to the invention (Ia) and (Ib) with respect to the damage induced on the skin by a cigarette extract. For comparison, caffeic acid (supplier: Acros) is also tested. This acid forms a basic unit of the compounds (Ia) and (Ib) according to the invention.
# The NHEK cells are inoculated in a 96-well plate in a suitable medium (Promocell), at a rate of 9000 cells per well, and incubated 24 h at 37° C. and 5% carbon dioxide.
# The compounds to be tested are prepared as follows: • (Ia): 10 mg of compound+909 μL of DMSO • (Ib): 7 mg of compound+636 μL of DMSO • caffeic acid: 10 mg of compound+909 μL of DMSO
# Each stock solution above is diluted 1000 times, to 10 ppm in the culture medium, then the solutions obtained are filtered by means of a nylon filter (0.22 μm). The final solutions are concentrated to 10 ppm in 0.1% DMSO.
# Solutions at 20 ppm in 0.2% DMSO are also prepared in a similar manner, for dilution in the cigarette extract.
# An extract of 20 cigarettes is prepared as indicated in example 14 above. This extract is then diluted to 1/50 in the culture medium; or to 2/50 in the culture medium, then to 1/2 in the culture medium, to which the compound to be tested is added at 20 ppm.
# The cells are pretreated for 24 h with the compound to be tested at 10 ppm in the culture medium.
# The cells are then treated with the cigarette extract diluted to 1/50th with or without the compound tested at 10 ppm for 24 h.
# 3 h before the end of the test, 10 μl of WST1 cellular proliferation reactant (Roche) are added into each well. The absorbance at 450 nm is measured before and after the addition of WST1 reactant, by means of a Multiskan® reader. The treated cells are compared to the untreated cells and to the cells exposed to the cigarette extract.
# IL-8 = IL-8 assay (ELISA) in culture supernatants of NHEK after induction with IL-1β; assay type: cell-based, human; settings: IL-1β 10 ng/ml 24 h, then substance 24 h, compound (Ia) 3 ppm, dexamethasone 0.4 ppm, CTL 0.23, CTL without IL-1β 0.06
# Description: This study is carried out on normal human Keratinocytes (NHEK).
# In this example, the anti-inflammatory properties of the compound (Ia) are evaluated by the assay of the IL-8, after the application of the cytokine IL-1β at 10 ng/ml onto NHEKs. IL-8 is a major inflammatory cytokine produced first of all during the inflammatory response of the keratinocytes. The quantification of the IL-8 in the culture supernatants allows an evaluation of the inflammatory state of the cells.
# The IL-1β is added to the culture medium of the NHEKs at a rate of 10 ng/ml for 24 h. After incubation, the culture media are removed and replaced with culture media containing the compound (Ia) at 3 ppm. After 24 h of incubation, the supernatants are collected.
# The reference anti-inflammatory element is dexamethasone (Sigma) used at 0.4 ppm. A control having undergone the same experimental conditions without the compound (Ia) (CTL), as well as a non-induced control (CTL without IL-1β), are also carried out.
# The quantification of the IL-8 in 50 μl of the culture supernatants is measured by an ELISA test (human CXCL8/IL-8 Immunoassay, R&D Systems).
# Each treatment is carried out in triplicate.
SMILES,Assay of the fluorescence with H2DCFDA after irradiation of NHEKs with UVAs [1],"percentage of nuclei positive for marking with γ-H2AX, compared with controls [2]",Morphology of the epidermis after UVA irradiation (histological analysis) [3],% survival of the cells (NHEK cells),Quantification of the IL8 (optical density) (IL-8)
"O.O.O=c1c(O)c(-c2ccc(O)c(O)c2)oc2cc(O)cc(O)c12 [Quercetin, quercetin dihydrate, reference compound]",207589.6,,,,
"Cc1ncc(CO)c(CN)c1O [pyridoxamine, reference compound]",,level similar to the irradiated sample,phenotype of the irradiated sample is also found,,
"COc1ccc(/C=C/C(=O)NCc2c(CO)cnc(C)c2O)cc1O [Compound (Ic), (E)-3-(3-hydroxy-4-methoxyphenyl)-N-((3-hydroxy-5-(hydroxymethyl)-2-methylpyridin-4-yl)-methyl)-acrylamide]",,same phenotype as the non-irradiated control sample,totally protected,,
"Cc1ncc(CO)c(CNC(=O)/C=C/c2ccc(O)cc2)c1O [Compound (Id), (E)-N-((3-hydroxy-5-(hydroxymethyl)-2-methylpyridin-4-yl)-methyl)-3-(4-hydroxyphenyl)-acrylamide]",,clearly reduced with respect to the irradiated control sample,partly protected,,
"COc1cc(/C=C/C(=O)NCc2c(CO)cnc(C)c2O)ccc1O [Compound (Ib), (E)-3-(4-hydroxy-3-methoxyphenyl)-N-((3-hydroxy-5-(hydroxymethyl)-2-methylpyridin-4-yl)-methyl)-acrylamide]",,,,76%,
"Cc1ncc(CO)c(CNC(=O)CCCC[C@@H]2CCSS2)c1O [Comp.1, reference compound]",,level similar to the irradiated sample,phenotype of the irradiated sample is also found,,
"C[C@@H]1C[C@H]2[C@@H]3CCC4=CC(=O)C=C[C@]4(C)[C@@]3(F)[C@@H](O)C[C@]2(C)[C@@]1(O)C(=O)CO [Dexamethasone, dexamethasone, reference compound]",,,,,0.13 optical density
"O=C(O)/C=C/c1ccc(O)c(O)c1 [caffeic acid, reference compound]",,level similar to the irradiated sample,phenotype of the irradiated sample is also found,73%,
